According to ChEMBL document CHEMBL1148172, “A New Diterpene from a Soft Coral, Sinularia dissecta” (J Nat Prod, 1993):
pIC50: −log10 of the molar value.

Target: T1, Acetylcholinesterase (Rattus norvegicus, UniProt P37136)
T1 sequence (P37136 whole entry): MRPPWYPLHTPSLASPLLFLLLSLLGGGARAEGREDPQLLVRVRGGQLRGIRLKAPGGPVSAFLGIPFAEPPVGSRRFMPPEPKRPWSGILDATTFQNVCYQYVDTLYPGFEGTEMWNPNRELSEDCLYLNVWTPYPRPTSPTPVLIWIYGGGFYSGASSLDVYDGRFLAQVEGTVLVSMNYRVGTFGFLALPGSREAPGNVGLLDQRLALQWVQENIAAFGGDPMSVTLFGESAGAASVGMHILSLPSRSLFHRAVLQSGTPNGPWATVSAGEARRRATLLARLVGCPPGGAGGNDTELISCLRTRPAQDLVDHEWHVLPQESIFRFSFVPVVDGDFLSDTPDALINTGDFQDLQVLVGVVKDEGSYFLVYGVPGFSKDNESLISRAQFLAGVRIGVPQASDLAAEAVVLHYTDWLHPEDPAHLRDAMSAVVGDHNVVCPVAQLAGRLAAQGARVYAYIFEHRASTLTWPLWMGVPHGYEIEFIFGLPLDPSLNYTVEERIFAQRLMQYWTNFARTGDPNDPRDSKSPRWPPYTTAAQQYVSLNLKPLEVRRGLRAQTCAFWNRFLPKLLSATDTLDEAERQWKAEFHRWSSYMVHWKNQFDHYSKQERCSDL
Assay: Inhibition of Wistar rat brain AChE
Details: read-out: I50

`C=C(C)[C@H]1C/C=C(/C(=O)OC)C(O)C(=O)C[C@@](C)(O)CC2=CC(C(=O)OC)=C(C1)O2` (stereo partly specified) showed a pIC50 of 4.20.
